Results on 4 compounds are retold here after publication PMC5672800 (Journal of medicinal chemistry, 2017).

Experiment [1] has as its system human MC3R. The note with it: cited from earlier work.
Experiment [2] deals with human MC4R. The note with it: cited from earlier work.
Experiment [3] deals with hMC4R. The note with it: cited from earlier work.
In experiment [4] the target is T1, mMC3R (Mus musculus, UniProt P33033). The experiment is described as follows: 125I-NDP-MSH competitive binding assay at mMC3R. As to conditions: vs Ac-His-DPhe-Arg-Trp-NH2; negative = more potent than control.
T1 sequence (P33033 whole entry): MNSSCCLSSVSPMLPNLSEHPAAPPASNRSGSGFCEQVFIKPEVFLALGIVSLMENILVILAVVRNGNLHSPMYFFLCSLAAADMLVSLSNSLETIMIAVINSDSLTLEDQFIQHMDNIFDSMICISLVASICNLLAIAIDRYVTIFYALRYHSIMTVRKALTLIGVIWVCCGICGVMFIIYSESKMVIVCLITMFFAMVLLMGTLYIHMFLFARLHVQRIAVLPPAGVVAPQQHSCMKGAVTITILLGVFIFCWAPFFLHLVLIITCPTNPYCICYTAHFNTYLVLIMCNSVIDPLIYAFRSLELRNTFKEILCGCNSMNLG
The target of experiment [5] is T1, mMC3R. As to conditions: read-out: mMC3R EC50; cited from earlier work.
The target in experiment [6] is mMC4R (Mus musculus, UniProt P56450). As to conditions: read-out: mMC4R EC50; cited from earlier work.
Chain of mMC4R (P56450 whole entry): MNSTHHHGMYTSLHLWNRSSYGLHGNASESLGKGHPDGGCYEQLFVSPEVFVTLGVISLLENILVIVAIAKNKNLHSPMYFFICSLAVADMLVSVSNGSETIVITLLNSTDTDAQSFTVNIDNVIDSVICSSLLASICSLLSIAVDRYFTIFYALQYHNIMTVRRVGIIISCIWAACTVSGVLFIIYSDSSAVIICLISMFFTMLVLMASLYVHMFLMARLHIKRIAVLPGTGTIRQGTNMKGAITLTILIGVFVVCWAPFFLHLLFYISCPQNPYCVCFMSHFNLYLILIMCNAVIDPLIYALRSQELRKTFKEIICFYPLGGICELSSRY

Consider `CC(=O)N[C@@H](Cc1c[nH]cn1)C(=O)N[C@H](Cc1ccccc1)C(=O)N[C@@H](CCCNC(=N)N)C(=O)N[C@@H](Cc1c[nH]c2ccccc12)C(N)=O` [Ac-His-DPhe-Arg-Trp-NH2], for which the half-inhibitory concentration (IC50) in experiment [1] (read-out: human MC3R IC50, previously reported) is above 10 µM.

Turning to Tic-(pI)DPhe-Arg-Trp-NH2, the “binding to human MC3R” value in experiment [1] was 75 nM. The “binding to human MC4R” value in experiment [2] was 0.30 nM. For the same compound, in experiment [3], the “hMC4R agonist activation with respect to maximal response” value is above 35% and the “hMC4R antagonist pA2” value was 9.10. Further, the Ki in experiment [3] (read-out: hMC4R antagonist Ki) is 0.79 nM.

With `CC(=O)N[C@@H](CCCNC(=N)N)C(=O)N[C@@H](CCCNC(=N)N)C(=O)N[C@H](Cc1ccc(I)cc1)C(=O)N[C@H](Cc1ccc2ccccc2c1)C(N)=O` [Compound 41, Ac-Arg-Arg-(pI)DPhe-DNal(2′)-NH2], in experiment [4], the “mMC3R (IC50) Fold Diff.” value is listed as -115.

Regarding “Ac-Ser-Tyr-Ser-Nle-Glu-His-Arg-Phe-Phe-Gly-Lys-Pro-Val-NH2 (SYSXEHRFFGKPV; HELM PEPTIDE1{[ac].S.Y.S.[Nle].E.H.R.F.F.G.K.P.V.[am]}$$$$V2.0; SMILES CCCC[C@H](NC(=O)[C@H](CO)NC(=O)[C@H](Cc1ccc(O)cc1)NC(=O)[C@H](CO)NC(C)=O)C(=O)N[C@@H](CCC(=O)O)C(=O)N[C@@H](Cc1c[nH]cn1)C(=O)N[C@@H](CCCNC(=N)N)C(=O)N[C@@H](Cc1ccccc1)C(=O)N[C@@H](Cc1ccccc1)C(=O)NCC(=O)N[C@@H](CCCCN)C(=O)N1CCC[C@H]1C(=O)N[C@H](C(N)=O)C(C)C)”, the EC50 in experiment [5] was 480 nM; in experiment [6] it was 930 nM.
